Test results: patent publication EP0341019A2, “Polyether antibiotic” (priority 1988, dated 1989)
Values after ≈ are worked out from the molar mass of the structure shown.

Experiments:
[1] = tested on: Streptococcus faecium X66; assay type: cell-based; details: Enterococcus faecium, X66, 24 h
[2] = tested on: E. maxima Strain LIT-626; experiment: anticoccidial feed test in infected chickens, ionophore-resistant strain; assay type: in vivo
[3] = tested on: Eubacterium aerofaciens 1235; assay type: cell-based; details: Collinsella aerofaciens, 1235, 24 h
[4] = tested on: Eimeria acervulina Strain FS-273 and E. tenella Strain FS-456; experiment: anticoccidial feed test in infected chickens, ionophore-resistant strains; assay type: in vivo

CC[C@@H](O)[C@]1(C)C[C@H](C)[C@@](O)([C@H]2C[C@H](C)[C@H]([C@]3(C)C[C@@H](O[C@H]4CC[C@H](OC)[C@@H](C)O4)[C@H]([C@]4(C)CC[C@@]5(O[C@H]([C@@H](C)[C@@H](OC)[C@H](C)C(=O)O)[C@H](C)[C@@H](OC)[C@H]5C)O4)O3)O2)O1 [Example A82810]
MIC [1]: 1 µg/mL (≈ 1.19 µM) | AVERAGE INTESTINAL LESION SCORES ([2]; 1.25 ppm): 3.7 | WEIGHT GAIN, PERCENT OF CONTROL ([2]; 1.25 ppm): 99% OF CONTROL | AVERAGE INTESTINAL LESION SCORES ([2]; 1.5 ppm): 3.3 | WEIGHT GAIN, PERCENT OF CONTROL ([2]; 1.5 ppm): 102% OF CONTROL | AVERAGE INTESTINAL LESION SCORES ([2]; 1.75 ppm): 4.0 | WEIGHT GAIN, PERCENT OF CONTROL ([2]; 1.75 ppm): 101% OF CONTROL | AVERAGE INTESTINAL LESION SCORES ([2]; 2 ppm): 3.3 | WEIGHT GAIN, PERCENT OF CONTROL ([2]; 2 ppm): 94% OF CONTROL | MIC [3]: ≤ 0.25 µg/mL | LESION SCORE ([4]; 2 ppm): 7.2 | PERCENT REDUCTION IN OOCYST PRODUCTION ([4]; 2 ppm): 22% | WEIGHT GAIN, PERCENT OF CONTROL ([4]; 2 ppm): 68% OF CONTROL | LESION SCORE ([4]; 6 ppm): 3.7 | PERCENT REDUCTION IN OOCYST PRODUCTION ([4]; 6 ppm): 65% | WEIGHT GAIN, PERCENT OF CONTROL ([4]; 6 ppm): 89% OF CONTROL | LESION SCORE ([4]; 10 ppm): 2.0 | PERCENT REDUCTION IN OOCYST PRODUCTION ([4]; 10 ppm): 83% | WEIGHT GAIN, PERCENT OF CONTROL ([4]; 10 ppm): 86% OF CONTROL
